Experimental findings from patent publication US20100248224A1, “DNA FRAGMENTATION ASSAY” (priority 2006, published 2010) are described below.

A value given as a limit tells only on which side of the number the result lay.

Common to all, as to type: cell-based, human
Series [1] has as its system HL-60 cells. As to the kind of experiment: DMSO tolerance in HL-60 cells, PicoGreen fluorescent assay. To be noted: 20 hr incubation, 0.3 million cells/mL, FIG. 11. The protocol: HL-60 cells in mid-log phase (0.3 million cells/mL) were treated with different doses of DMSO for 20 hours. An equal volume of the lysis buffer (20 mM Tris-HCl (pH 8.0), 20 mM EDTA, 0.2% Tween-20 and 5 ug/ml. RNase) was added into the total cell culture. The cell lysate was centrifuged at 2000×g for 20 min. The top portion of the supernatant was withdrawn and DNA content was quantitated using the PicoGreen fluorescent assay.

Series [2] deals with HL-60 cells. As to the kind of experiment: PicoGreen detection of DNA fragmentation in HL-60 cell lysates. To be noted: for EC50: HL-60 cells 0.3 million cells/ml, treated 20 hours, FIG. 3, read-out: EC50 value, DNA fragmentation detected with PicoGreen. On the procedure:
An equal volume of the lysis buffer (20 mM Tris-HCl (pH 8.0), 20 mM EDTA, 0.2% Tween-20 and 5 ug/mL RNase) was added into the total cell culture. […] The dose response curve of camptothecin using PicoGreen detection (FIG. 3) was compared to propidium iodide detection (FIG. 4).

Series [3] relates to HL-60 cells. As to the kind of experiment: ELISA detection of DNA fragmentation in HL-60 cell lysates (Cell Death Detection ELISA kit). To be noted: HL-60 cells 0.3 million cells/ml, treated 20 hours, FIG. 5, read-out: EC50 value, DNA fragmentation determined by ELISA.
Series [4] deals with HL-60 cells. As to the kind of experiment: Inhibition of camptothecin-induced DNA fragmentation in HL-60 cells, PicoGreen detection. To be noted: 20 hours, FIG. 6. An excerpt:
Zinc has been known to inhibit apoptosis induced by both chemical and death-receptor agonists. […] DNA fragments released from cells were quantified with PicoGreen reagent as described above. For samples with camptothecin, without zinc chloride or at low concentrations, fluorescence signal was more than 3 fold of that from samples with DMSO treatment.

On to `C[S+](C)[O-]` [DMSO, dimethyl sulfoxide], for which the “DMSO concentration tolerated by HL-60 cells” value with HL-60 cells [1] is on record as “up to 1%”.
As usually defined, the EC50 is the concentration that produces a half-maximal response. Turning to Neomycin, the EC50 in the series on HL-60 cells [2] and in the series with HL-60 cells [3] was > 100000 nM throughout.
Turning to `CC[C@@]1(O)C(=O)OCc2c1cc1n(c2=O)Cc2cc3ccccc3nc2-1` [camptothecin, Camptothecin], the PicoGreen fluorescence intensity result in the series on HL-60 cells [2] (3.2 uM for 5.5 hours vs 0.1% DMSO, 0.4 million cells/mL, FIG. 1) is recorded as “increased”. Moreover, the “DNA fragmentation, time course” value with HL-60 cells [2] (3.2 uM, at 4 hours of treatment, FIG. 8) is on record as “significant increase in DNA fragmentation”. Also, the EC50 turned out to be 1480 nM in the series with HL-60 cells [2] (Homo sapiens) and 1110 nM in the series on HL-60 cells [3] (Homo sapiens). For the same compound, the “fluorescence signal relative to samples with DMSO treatment” value in the series on HL-60 cells [4] (3.2 μM camptothecin, without zinc chloride or at low concentrations) is given as “more than 3 fold”.
Consider `[Cl-].[Cl-].[Zn+2]` [zinc chloride], for which the “magnitude of camptothecin-induced DNA fragmentation (level of fluorescent signal)” value in the series on HL-60 cells [4] (zinc chloride 100 uM or higher, with 3.2 μM camptothecin) is given as “decreased to the same level as samples with DMSO treatment only”.
